In patent US12662473B2, “Inhibitors for programmed cell necrosis and preparation method therefor and use thereof” (SHANGHAI INSTITUTE OF ORGANIC CHEMISTRY, CHINESE ACADEMY OF …, priority 2019, dated 2026):
Read-outs that look alike come from different tables or passages of the source.

Tests used:
FADD−/− Jurkat cells = test: TNF-induced programmed cell necrosis inhibition, Cell Titer-Glo viability; type: cell-based
Source text: (§1) The adopted biological assay protocol was: the programmed necroptosis effect of compounds on TNF-induced in FADD (Fas-Associated Death Domain) deficient Jurkat cells and L929 cells.
(§2) In order to verify the inhibitory effect of the compounds of the present invention on programmed cell necrosis at the cellular level, cell types closely related to the RIP1 pathway, namely FADD deficient Jurkat cells (human peripheral blood leukemia T cell line) and L929 cells, were selected. Two different stimulation methods were used: tumor necrosis factor (TNFα) used alone, or TNFα used in combination with mitochondria-derived cysteine aspartate activator (SMAC). Cells viability was calculated by detecting chemiluminescence values, and the biological activity of the compound for inhibiting programmed cell necrosis can be obtained.
(§3) Methods: FADD deficient Jurkat cells: FADD deficient Jurkat cells (human peripheral blood leukemia T cell line) were cultured in vitro. After growing to the logarithmic growth phase, the cells were collected, centrifuged at 1000 rpm for 5 min, the supernatant was discarded, and the cell concentration was adjusted to 2.5×10^5/mL. Cells were seeded into 384-well plates, 40 μl per well. 5 μL of Smac (50 nM) diluted in cell culture medium and 5 μL of each compound were added to the corresponding wells. After pretreatment at 37° C. for 1 h, 5 μL of TNFα (50 ng/mL) diluted in cell culture medium was added to each well of the stimulation group, and 5 μL of the culture medium was added to the control group. The plate was cultured in a cell incubator (37° C., 5% CO2) for 14 h, and 15 μl of Cell Titer-Glo solution was added to each well, then incubated for 30 min at room temperature, and intracellular ATP level was measured by detecting luminescence. The unstimulated DMSO control wells were taken as 100% cell viability. L929 cells: The L929 cells (mouse fibroblasts) were cultured in vitro, digested and diluted to 6.25×10^4/ml, and the cells were seeded into 384-well plates, 40 μl per well. The plate was placed in a cell incubator (37° C., 5% CO2) for 12 hours. 5 μL of Smac (500 nM) diluted in cell culture medium and 5 μL of each compound were added to the corresponding wells. After pretreatment at 37° C. for 1 h, 5 μL of TNFα (500 ng/mL) diluted in cell culture medium was added to each well of the stimulation group, and 5 μL of the culture medium was added to the control group. After the plate was cultured for 14 h in a cell incubator (37° C., 5% CO2), 15 μl of Cell Titer-Glo solution was added to each well. The plate was incubated at room temperature for 30 min, and intracellular ATP level was measured by detecting luminescence. The unstimulated DMSO control wells were taken as 100% cell viability. EC50 values of the compounds were calculated using Prism Graphpad statistical software.
FADD deficient Jurkat cells: FADD deficient Jurkat cells (human peripheral blood leukemia T cell line) were cultured in vitro. After growing to the logarithmic growth phase, the cells were collected, centrifuged at 1000 rpm for 5 min, the supernatant was discarded, and the cell concentration was adjusted to 2.5×10^5/mL. Cells were seeded into 384-well plates, 40 μl per well. 5 μL of Smac (50 nM) diluted in cell culture medium and 5 μL of each compound were added to the corresponding wells. After pretreatment at 37° C. for 1 h, 5 μL of TNFα (50 ng/mL) diluted in cell culture medium was added to each well of the stimulation group, and 5 μL of the culture medium was added to the control group. After the plate was cultured in a cell incubator (37° C., 5% CO2) for 14 h, 15 μl of Cell Titer-Glo solution was added to each well. The mixture was incubated for 30 min at room temperature, and intracellular ATP level was measured by detecting luminescence. The unstimulated DMSO control wells were taken as 100% cell viability.

L929 cells = test: as above; type: cell-based, mouse; details: read-out: EC50 inhibitory activity on programmed cell necrosis
Source text: as §1, §2, §3
L929 cells: The L929 cells (mouse fibroblasts) were cultured in vitro, digested and diluted to 6.25×10^4/ml, and the cells were seeded into 384-well plates, 40 μl per well. The plate was placed in a cell incubator (37° C., 5% CO2) for 12 hours. 5 μL of Smac (500 nM) diluted in cell culture medium and 5 μL of each compound were added to the corresponding wells. After pretreatment at 37° C. for 1 h, 5 μL of TNFα (500 ng/mL) diluted in cell culture medium was added to each well of the stimulation group, and 5 μL of the culture medium was added to the control group. After the plate was cultured for 14 h in a cell incubator (37° C., 5% CO2), and 15 μl of Cell Titer-Glo solution was added to each well, then incubated at room temperature for 30 min, and intracellular ATP level was measured by detecting luminescence. The unstimulated DMSO control wells were taken as 100% cell viability.

[1] = Homo sapiens, Jurkat, 14 h, TNFa + SM164, read-out: EC50 inhibitory activity on programmed cell necrosis
[2] = Homo sapiens, Jurkat, TNFa, read-out: EC50 inhibitory activity on programmed cell necrosis
[3] = Mus musculus, L929, 14 h, L929 cells (mouse), TNFa + SM164
[4] = Mus musculus, L929, L929 cells (mouse), TNFa

Row | SMILES | EC50 (FADD−/− Jurkat cells; [1]) [nM] | EC50 (FADD−/− Jurkat cells; [2]) [nM] | EC50 (L929 cells; [3]) [nM] | EC50 (L929 cells; [4]) [nM] | EC50 (FADD−/− Jurkat cells; FADD−/− Jurkat cells (human), TNFa + SM164, read-out: EC50 inhibitory activity on programmed cell necrosis) [nM] | EC50 (FADD−/− Jurkat cells; FADD−/− Jurkat cells (human), TNFa, read-out: EC50 inhibitory activity on programmed cell necrosis) [nM] | EC50 (L929 cells; L929 cells (mouse), TNFa + SM164) [nM] | EC50 (L929 cells; L929 cells (mouse), TNFa) [nM]
1 | Cc1ccc([C@@H]2CCCN2C(=O)C(C)(C)Oc2ccc(Cl)cc2)cc1 (stereo in doubt) [QY-5-21] | 696 | 93 | 208 | 59.9 |  |  |  | 
2 | CN1C(=O)NC(Cc2c[nH]c3c(Cl)cccc23)C1=O (stereo not drawn) [Compound 7-Cl-O-Nec-1, reference compound] |  |  |  |  | 337 | 76 | 924 | 155
3 | Cc1noc([C@@H]2CCCN2C(=O)C(C)(C)Oc2ccccc2)n1 [QY-2-25] | > 10000 | 6180 | > 10000 | 2670 |  |  |  | 
4 | Cc1noc([C@@H]2CCCN2C(=O)C(C)(C)Oc2ccc(F)cc2)n1 [QY-2-26] | > 10000 | 417 | 982 | 182 |  |  |  | 
5 | Cc1noc([C@@H]2CCCN2C(=O)C(C)(C)Oc2ccc(N(C)C)cc2)n1 [QY-2-27] | > 10000 | 9380 | > 10000 | > 10000 |  |  |  | 
6 | CC(C)(Oc1ccc(Cl)cc1)C(=O)N1CCC[C@H]1c1nnc(N)s1 [QY-2-34] | > 10000 | > 10000 | > 10000 | > 10000 |  |  |  | 
7 | Cc1nc([C@@H]2CCCN2C(=O)C(C)(C)Oc2ccc(Cl)cc2)sc1C [QY-2-38] | > 10000 | 1700 | > 10000 | 1550 |  |  |  | 
8 | CC(C)(Oc1ccc(Cl)cc1)C(=O)N1CCC[C@H]1c1nccs1 [QY-2-39] | > 10000 | 1060 | 8920 | 1900 |  |  |  | 
9 | Cc1csc([C@@H]2CCCN2C(=O)C(C)(C)Oc2ccc(Cl)cc2)n1 [QY-2-52] | 2240 | 464 | 2370 | 419 |  |  |  | 
10 | Cc1cc([C@@H]2CCCN2C(=O)C(C)(C)Oc2ccc(Cl)cc2)on1 [QY-2-53] | 1340 | 199 | 1170 | 172 |  |  |  | 
11 | COc1ccc(OC(C)(C)C(=O)N2CCC[C@H]2c2nc(C)no2)cc1 [QY-2-54] | > 10000 | > 10000 | > 10000 | 6190 |  |  |  | 
12 | Cc1noc([C@@H]2CCCN2C(=O)C(C)(C)Oc2ccc(C#N)cc2)n1 [QY-2-55] | 2220 | 140 | 233 | 25 |  |  |  | 
13 | Cc1noc([C@@H]2CCCN2C(=O)C(C)(C)Oc2ccc(-c3ccccc3)cc2)n1 [QY-2-56] | > 10000 | > 10000 | > 10000 | 2120 |  |  |  | 
14 | Cc1noc([C@@H]2CCCN2C(=O)C(C)(C)Oc2ccc(I)cc2)n1 [QY-2-75] | 5150 | 608 | > 10000 | 2450 |  |  |  | 
15 | Cc1noc([C@@H]2CCCN2C(=O)C(C)(C)Oc2ccc(OC(F)(F)F)cc2)n1 [QY-2-76] | 3960 | > 10000 | > 10000 | > 10000 |  |  |  | 
16 | Cc1ccc(OC(C)(C)C(=O)N2CCC[C@H]2c2nc(C)no2)cc1 [QY-2-77] | > 10000 | 7900 | > 10000 | 4260 |  |  |  | 
17 | Cc1noc([C@@H]2CCCN2C(=O)C(C)(C)Oc2ccc(Oc3ccccc3)cc2)n1 [QY-2-78] | > 10000 | 127 | > 10000 | > 10000 |  |  |  | 

Row | SMILES | EC50 (FADD−/− Jurkat cells; [1]) [nM] | EC50 (FADD−/− Jurkat cells; [2]) [nM] | EC50 (L929 cells; [3]) [nM] | EC50 (L929 cells; [4]) [nM] | EC50 (FADD−/− Jurkat cells; FADD−/− Jurkat cells (human), TNFa + SM164, read-out: EC50 inhibitory activity on programmed cell necrosis) [nM] | EC50 (FADD−/− Jurkat cells; FADD−/− Jurkat cells (human), TNFa, read-out: EC50 inhibitory activity on programmed cell necrosis) [nM] | EC50 (L929 cells; L929 cells (mouse), TNFa + SM164) [nM] | EC50 (L929 cells; L929 cells (mouse), TNFa) [nM]
18 | Cc1noc([C@@H]2CCCN2C(=O)C(C)(C)Oc2cccc(Cl)c2)n1 [QY-2-79] | 8920 | 2030 | 1620 | 212 |  |  |  | 
19 | CC(C)(Oc1ccc(Cl)cc1)C(=O)N1CCC[C@H]1c1nc(C2CC2)no1 [QY-2-100] | > 10000 | 2240 | > 10000 | 2480 |  |  |  | 
20 | CCCCc1noc([C@@H]2CCCN2C(=O)C(C)(C)Oc2ccc(Cl)cc2)n1 [QY-2-103] | > 10000 | > 10000 | > 10000 | > 10000 |  |  |  | 
21 | CC(C)(Oc1ccc(Cl)cc1)C(=O)N1CCC[C@H]1c1nc(Cc2ccccc2)no1 [QY-2-104] | > 10000 | > 10000 | > 10000 | > 10000 |  |  |  | 
22 | Cc1noc([C@@H]2CCCN2C(=O)COc2ccc(Cl)cc2)n1 [QY-3-4] | > 10000 | > 10000 | 59100 | > 10000 |  |  |  | 
23 | Cc1conc1[C@@H]1CCCN1C(=O)C(C)(C)Oc1ccc(Cl)cc1 [QY-3-11] | 3270 | 389 | 1570 | 404 |  |  |  | 
24 | CC(C)c1noc([C@@H]2CCCN2C(=O)C(C)(C)Oc2ccc(Cl)cc2)n1 [QY-3-17] | > 10000 | 3910 | 52400 | 5380 |  |  |  | 
25 | Cc1noc([C@@H]2CCCN2C(=O)C(C)(C)Oc2ccc(Cl)c(F)c2)n1 [QY-3-26] | 1280 | 111 | 1240 | 196 |  |  |  | 
26 | Cc1noc([C@@H]2CCCN2C(=O)C(C)(C)Oc2ccc(Cl)cc2F)n1 [QY-3-27, (S)-2-(4-Chloro-2-fluorophenoxy)-2-methyl-1-(2-(3-methyl-1,2,4-oxadiazol-5-yl)pyrrolidin-1-yl)propan-1-one] | 849 | 56 | 792 | 133 |  |  |  | 
27 | Cc1noc([C@@H]2CCCN2C(=O)C(C)(C)Oc2ccc3ccccc3c2)n1 [QY-3-28] | > 10000 | 5550 | 4080 | 878 |  |  |  | 
28 | CC(C)(Oc1ccc(Cl)cc1)C(=O)N1CCCC1c1ccccc1 (stereo not drawn) [QY-3-29] | 664 | 35 | 157 | 47 |  |  |  | 
29 | Cc1noc([C@@H]2CCCN2C(=O)C2(Oc3ccc(Cl)cc3)CC2)n1 [QY-3-35] | > 10000 | 10500 | > 10000 | 160000 |  |  |  | 
30 | Cc1noc([C@@H]2CCCN2C(=O)C(C)(C)Sc2ccc(Cl)cc2)n1 [QY-3-36] | 8360 | 983 | 9400 | 2250 |  |  |  | 
31 | Cc1cccc(C2CCCN2C(=O)C(C)(C)Oc2ccc(Cl)cc2)c1 (stereo not drawn) [QY-3-39] | 5280 | 712 | 1480 | 386 |  |  |  | 
32 | Cc1noc([C@@H]2CCCN2C(=O)C2(Oc3ccc(Cl)cc3)CCCC2)n1 [QY-3-46] | 5830 | 789 | > 10000 | 2010 |  |  |  | 
33 | CCN(CC)Cc1noc([C@@H]2CCCN2C(=O)C(C)(C)Oc2ccc(Cl)cc2)n1 [QY-3-51] | > 10000 | 59200 | > 10000 | > 10000 |  |  |  | 
